From publication PMC12114375, “Discovery of Hydrazineyl Amide Derivative of Pseudolaric Acid B for Reprogramming Tumor-Associated Macrophages Against Tumor Growth” (Molecules, 2025)

Columns and labels:
Raw264.7 cells = assay: Cell viability (CCK-8) of RAW264.7 cells; format: cell-based, mouse; conditions: IL-4/IL-13 plus compound 10 μM, 12 h
Method: Cells were seeded in 96-well tissue culture plates. On the next day, cells were exposed to various concentrations of compounds and further cultured for the indicated period. Finally, cell proliferation was determined by using the Cell Counting Kit (CCK-8) (Dojindo, Kumamoto, Japan) assay.
Figure S2. Effects of natural pseudolaric acids 1-4, 6 and their O-pyranosides 5, 7 as well as the derivatives 8-18 o f 1 on Raw264.7 cell viability. Raw264.7 cells were treated with IL-4/IL-13 alone or combined with indicated compounds (10 μM) for 12 h. After incubation, the cell viability was determined using a cell counting kit (CCK-8, Dojindo, Japan) assay.
(1 picture or pasted object on this page, not shown here)

Hepa1-6 tumor = assay: In vivo anti-tumor efficacy, Hepa1-6 subcutaneous tumor model; conditions: Hepa1-6 model; for tumor growth inhibitory rate: intraperitoneal injections, once daily
Source text: Encouraged by its intriguing cellular activities, we investigated the anti-tumor effect of compound 12 in vivo. The Hepa1-6 liver cancer model, an immunocompetent macrophage-rich subcutaneous murine tumor model, was thus established. […] To further investigate whether the in vivo anti-tumor effect of compound 12 is associated with its inhibition of pro-tumoral macrophages and consequent activation of anti-tumor CD8^+ T cells, we analyzed the infiltration of macrophages and CD8^+ T cells in the tumor tissue of the Hepa1-6 model.
Animal procedures were approved by the Institutional Animal Care and Use Committee of the Shanghai Institute of Materia Medica (approval no. 2024-06-DJ-95). Mice (4–6 weeks old) were housed with five or six mice per cage in a specific pathogen-free room with a 12 h light/dark schedule at 25 °C ± 1 °C and were fed an autoclaved chow diet and water ad libitum. Hepa1-6 cells (2 × 10^6 cells) were subcutaneously implanted in the right flank of C57 BL/6 mice. […] The tumor volumes and body weights were measured twice per week. Tumor volume (TV) was calculated as follows: TV = (length × width^2)/2. Significant differences between the treated versus the vehicle groups were determined using the Student’s t-test. […] Viability was determined by staining with either the LIVE/DEAD® Fixable Violet Dead Cell Stain Kit (Invitrogen, Waltham, […], USA) or the Zombie Aqua™ Fixable Viability Kit (Biolegend, San Diego, CA, USA). Data were analyzed using FlowJo10.4 software.
Figure 4 Compound 12 inhibited Hepa1-6 tumor growth in vivo and remodeled the tumor microenvironment. […] The TVs (A) and body weights (B) are presented as the mean ± SEM. * p < 0.05 vs. the vehicle group, determined by the Student’s t-test. […] The infiltration of CD45^+ cells (C), TAMs (D), CD206^+ TAMs (E), ARG1^+ TAMs (F), CD8^+ T cells (G), GRZB^+ CD8^+ T cells (H), IFN γ^+ CD8^+ T cells (I), and TNF α^+ CD8^+ T cells (J) was tested (n = 8 mice in the vehicle group and n = 7 mice in the 12-treated group). * p < 0.05, ** p < 0.01, *** p < 0.001 vs. the vehicle group, determined by the Student’s t-test.

## COC(=O)C1=CC[C@@]23CC[C@@H]([C@@](C)(/C=C/C=C(\C)C(=O)NNCCO)OC2=O)[C@@]3(OC(C)=O)CC1 [compound 12, Methyl(3R,4S,4aS,9aR)-4a-acetoxy-3-((1E,3E)-5-(2-(2-hydroxyethyl)hydrazineyl)-4-methyl-5-oxopenta-1,3-dien-1-yl)-3-methyl-1-oxo-3,4,4a,5,6,9-hexahydro-1H-4,9a-ethanocyclohepta[c]pyran-7-carboxylate]
Raw264.7 cells
  cell viability: no significant diminution in cell viability
Hepa1-6 tumor; 25 and 50 mg/kg
  body weight during the treatment: no obvious loss of body weight
Hepa1-6 tumor; 25 mg/kg
  tumor growth inhibitory rate: 53.2%
Hepa1-6 tumor; 50 mg/kg
  tumor growth inhibitory rate: 48.3%
